{
  "source": "patent US11229664B2",
  "about": "“Treatment of myelosuppression” (priority 2012, dated 2022)",
  "key": {"[1]": {"test_system": "platelets", "assay": "Clinical trials of ODSH adjunctive to induction and consolidation therapy in AML (platelet counts, need for transfusion)", "format": "in vivo, human", "experimental": "A clinical trial is conducted to confirm the therapeutic advantage of ODSH administered adjunctively to induction and consolidation therapy and subsequent allogeneic or autologous bone marrow transplantation in the treatment of acute myelogenous leukemia (AML). Subjects included in the trial are subjects diagnosed with AML who are undergoing induction and consolidation therapy. Subjects are randomly assigned to either a control group (receiving only induction and consolidation therapy) or a treatment group (receiving adjunctive administration of ODSH). ODSH is administered as a continuous infusion (0.375 mg/kg/hr). Subjects in each arm of the trial are evaluated for platelet counts and the need for platelet transfusion. Further metrics evaluated include measurement of circulating levels of PF4 and rate of granulocyte recovery.\nA second clinical trial is conducted to confirm the advantage of ODSH administered adjunctively to induction and consolidation chemotherapy in the treatment of AML. The trial is an open-label pilot study often patients newly diagnosed with AML and not previously treated for AML. Patient treatment regimens are as follows. […] Subjects are evaluated for the degree and duration of thrombocytopenia, based on platelet counts and need for transfusion."}, "[2]": {"test_system": "metastatic adenocarcinoma of the pancreas", "assay": "Clinical trial: tumor response and disease status (RECIST 1.1), ECOG performance status", "format": "in vivo, human", "experimental": "Treatment consisted of a series of 28-day cycles, wherein the last day of one cycle (e.g., day 28, cycle 1) was immediately followed by the first day of the next cycle (e.g., day 1, cycle 2). In each 28-day treatment cycle, patients were dosed at days 1, 8, and 15 (three weeks of medication followed by one week of rest) as follows. First, nab-paclitaxel at 125 mg/m^2 was administered as an intravenous infusion over 30 minutes. […] Nab-paclitaxel and gemcitabine therapy was given as described in the prescribing information for Abraxane® and Gemzar®. See also, Von Hoff et al., 2011, J. Clinical Oncology 29:1-7).\nAs a substantially non-anticoagulant heparinoid, ODSH can be administered at a dose that is greater than the fully anticoagulant dose of unfractionated heparin, without concern for anticoagulant effect, as shown in the Results below.\nBlood samples were also tested on day 1 of each treatment cycle for the serum level of CA19-9 (carbohydrate antigen 19-9) a marker used to assess the efficacy of the chemotherapy agents in treating pancreatic cancer. See. e.g., Maeda, 2011, Int. J. Clin. Oncol. 16(5):539-45. Reduction in the serum level of CA19-9 is indicative of chemotherapeutic efficacy against the pancreatic cancer. Tumor response and disease status was measured according to Response Evaluation Criteria in Solid Tumors (RECIST) Guidelines Version 1.1. Eur. J. Cancer, 2009, 45:228-247. A reduction of at least 30% in the sum of the diameters of target lesions (measurable lesions present at screening, up to 2 lesions per involved organ) was scored as a partial response. Patients were scored as having stable disease where the smallest sum of target lesion diameters neither decreased nor increased sufficiently to qualify as a partial response or progressive disease."}, "[3]": {"test_system": "Human ovarian cancer cell line A2780", "assay": "A2780 human ovarian cancer xenograft model: tumor weight", "format": "in vivo, athymic female mice", "set-up": "key to Mouse status printed in place of tumor weight: FD = Found Dead; TS = Terminal Sacrifice", "details": "for Tumor weight, individual mice: listed as PGX ODSH; for Mouse status printed in place of tumor weight: Groups 2 and 3", "experimental": "ODSH (50 mg/mL stock concentration) was made by Pyramid Laboratories, Inc. and stored at room temperature until use. As described further below, ODSH was administered either intravenously (IV), at a dose of 48 mg/kg and volume of 10 mL/kg, or subcutaneously (SC) at a dose of 24 mg/kg and volume of 5 ml/kg. Carboplatin obtained from a clinical supplier was stored at 4° C. until use. Carboplatin was administered by intraperitoneal injection (IP) at a dose of 80 mg/kg and volume of 10 mL/kg. Saline solution (0.9% NaCl) was used as a vehicle control for ODSH and administered by the same routes and in the same volumes as ODSH.\nHuman ovarian cancer cell line A2780 was used in the murine xenograft experiments as follows. Approximately 5×10^6 A2780 cells were used per mouse, injected subcutaneously into the right flank in 0.1 mL of 50% Matrigel/50% media. The study was initiated when tumors reached a size of 90-130 mg. 40 mice were used, 10 per treatment regimen. The mice were normal athymic female mice, aged 6-7 weeks, housed in microisolator cages and maintained under pathogen-free conditions. Tumor and body weights were measured three times per week.\nFour treatment groups were studied."}, "[4]": {"details": "ten patients, ODSH adjunct to gemcitabine/nab-paclitaxel"}},
  "note": "Several values for one entry are separate records, joined by “and”; a condition that tells them apart may be missing. Identical values can stand only once.",
  "data": [
    {"substance": "substantially 2-O, 3-O desulfated heparin [ODSH]", "values": [
      {"measurement": "Thrombocytopenia in AML patients on induction and consolidation chemotherapy (second trial)", "setting": "[1]; ODSH 4 mg/kg bolus then 0.25 mg/kg/hr, cytarabine + idarubicin", "result": "attenuates thrombocytopenia"},
      {"measurement": "Thrombocytopenia in AML patients on induction and consolidation therapy (first trial)", "setting": "[1]; ODSH continuous infusion 0.375 mg/kg/hr, adjunctive", "result": "attenuates thrombocytopenia"},
      {"measurement": "ECOG Performance status", "setting": "[2]; 7 evaluable patients, after 8 weeks in the trial (day 1 of cycle 3)", "result": "stable or improved"},
      {"measurement": "Patients with clinical or radiographic evidence of progressive disease", "setting": "[2]; after three or four full cycles of treatment", "result": "no patient"},
      {"measurement": "Patients with partial response (RECIST)", "setting": "[2]; [4]", "result": 5, "unit": "patients"},
      {"measurement": "Patients with stable disease (RECIST)", "setting": "[2]; [4]", "result": 5, "unit": "patients"},
      {"measurement": "Tumor weight, Mean", "setting": "[3]; Day 1", "result": 107.0, "unit": "mg"},
      {"measurement": "Tumor weight, Median", "setting": "[3]; Day 1", "result": 105.5, "unit": "mg"},
      {"measurement": "Tumor weight, individual mice", "setting": "[3]; Day 1, Mouse 1-10", "result": "104 mg (2×) and 107 mg and 109 mg and 112 mg and 120 mg and 126 mg and 90 mg and 96 mg and 101 mg"},
      {"measurement": "Tumor weight, Mean", "setting": "[3]; Day 4", "result": 146.8, "unit": "mg"},
      {"measurement": "Tumor weight, Median", "setting": "[3]; Day 4", "result": 134.2, "unit": "mg"},
      {"measurement": "Tumor weight, individual mice", "setting": "[3]; Day 4, Mouse 1-10", "result": "159 mg and 111 mg and 195 mg and 131 mg and 173 mg and 124 mg and 200 mg and 121 mg and 117 mg and 138 mg"},
      {"measurement": "Tumor weight, Mean", "setting": "[3]; Day 6", "result": 240.3, "unit": "mg"},
      {"measurement": "Tumor weight, Median", "setting": "[3]; Day 6", "result": 238.2, "unit": "mg"},
      {"measurement": "Tumor weight, individual mice", "setting": "[3]; Day 6, Mouse 1-10", "result": "309 mg and 215 mg and 347 mg and 264 mg and 235 mg and 139 mg and 282 mg and 241 mg and 171 mg and 201 mg"},
      {"measurement": "Tumor weight, Mean", "setting": "[3]; Day 8", "result": 382.2, "unit": "mg"},
      {"measurement": "Tumor weight, Median", "setting": "[3]; Day 8", "result": 392.0, "unit": "mg"},
      {"measurement": "Tumor weight, individual mice", "setting": "[3]; Day 8, Mouse 1-10", "result": "449 mg and 321 mg and 639 mg and 413 mg and 411 mg and 183 mg and 422 mg and 373 mg and 315 mg and 296 mg"},
      {"measurement": "Tumor weight, Mean", "setting": "[3]; Day 11", "result": 609.6, "unit": "mg"},
      {"measurement": "Tumor weight, Median", "setting": "[3]; Day 11", "result": 585.4, "unit": "mg"},
      {"measurement": "Tumor weight, individual mice", "setting": "[3]; Day 11, Mouse 1-10", "result": "816 mg and 366 mg and 910 mg and 653 mg and 536 mg and 349 mg and 811 mg and 635 mg and 491 mg and 529 mg"},
      {"measurement": "Tumor weight, Mean", "setting": "[3]; Day 14", "result": 984.4, "unit": "mg"},
      {"measurement": "Tumor weight, Median", "setting": "[3]; Day 14", "result": 949.7, "unit": "mg"},
      {"measurement": "Tumor weight, individual mice", "setting": "[3]; Day 14, Mouse 1-10", "result": "1,303 mg and 670 mg and 1,499 mg and 1,032 mg and 868 mg and 559 mg and 1,253 mg and 1,084 mg and 815 mg and 762 mg"},
      {"measurement": "Tumor weight, Mean", "setting": "[3]; Day 18", "result": "1,501.7 mg"},
      {"measurement": "Tumor weight, Median", "setting": "[3]; Day 18", "result": "1,591.5 mg"},
      {"measurement": "Tumor weight, individual mice", "setting": "[3]; Day 18, Mouse 1-10", "result": "1,796 mg and 1,150 mg and 1,836 mg and 1,568 mg and 1,714 mg and 891 mg and 1,869 mg and 1,615 mg and 1,157 mg and 1,422 mg"},
      {"measurement": "Tumor weight, Mean", "setting": "[3]; Day 21", "result": "2,072.6 mg"},
      {"measurement": "Tumor weight, Median", "setting": "[3]; Day 21", "result": 1952.5, "unit": "mg"},
      {"measurement": "Tumor weight, individual mice", "setting": "[3]; Day 21, Mouse 1-10", "result": "2,692 mg and 1,467 mg and 2,639 mg and 1,852 mg and 1,880 mg and 1,289 mg and 2,560 mg and 2,642 mg and 1,681 mg and 2,025 mg"},
      {"measurement": "Tumor weight, Mean", "setting": "[3]; Day 25", "result": "2,343.5 mg"},
      {"measurement": "Tumor weight, Median", "setting": "[3]; Day 25", "result": "2,422.8 mg"},
      {"measurement": "Tumor weight, individual mice", "setting": "[3]; Day 25, Mouse 1-10", "result": "2,414 mg and 2,464 mg and 2,599 mg and 1,817 mg and 2,423 mg"},
      {"measurement": "Mouse status printed in place of tumor weight", "setting": "[3]; Day 25, individual mice", "result": "TS"},
      {"measurement": "Tumor weight, Mean", "setting": "[3]; Day 28", "result": "3,349.0 mg"},
      {"measurement": "Tumor weight, Median", "setting": "[3]; Day 28", "result": "3,251.6 mg"},
      {"measurement": "Tumor weight, individual mice", "setting": "[3]; Day 28, Mouse 1-10", "result": "3,909 mg and 3,784 mg and 3,252 mg and 2,671 mg and 3,129 mg"},
      {"measurement": "Mouse status printed in place of tumor weight", "setting": "[3]; Day 28, individual mice", "result": "TS"}
    ]}
  ]
}
